Measurements: PubChem BioAssay (NCI)
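Growth conditions: 96-well plates. Treatment: test compound, 48 hours, 5 concentrations. Analysis: linear interpolation between bracketing concentrations; unreached endpoints set to highest concentration. The concentration for 50% growth inhibition is given as GI50. At the TGI there is no net growth.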 Where a SMILES comes first, the peptide text is derived from it. The star is where a group is joined. Boc = CC(C)(C)OC(=O)*; Bz = O=C(c1ccccc1)*

Experiments:
Assay in all cases: inhibition of tumour cell growth, NCI panel, 48 h
M14 melanoma = system: M14 melanoma
COLO 205 colon = system: COLO 205 colon
OVCAR-4 ovarian = system: OVCAR-4 ovarian
U251 CNS = system: U251 CNS
SW-620 colon = system: SW-620 colon
MDA-MB-435 = system: MDA-MB-435
SK-MEL-2 melanoma = system: SK-MEL-2 melanoma
HCC-2998 colon = system: HCC-2998 colon
EKVX NSCLC = system: EKVX NSCLC

## CC(NC(=O)C(Cc1ccc(OC(=O)c2ccccc2)cc1)NC(=O)OC(C)(C)C)C(=O)NC(Cc1ccccc1)C(=O)NCC(N)=O (configuration not stated) (Boc-Y(Bz)AFG-NH2; configuration not given here)
M14 melanoma
  TGI: 34 µM
COLO 205 colon
  TGI: 84.8 µM
OVCAR-4 ovarian
  TGI: 47.2 µM
U251 CNS
  TGI: 35.1 µM
SW-620 colon
  TGI: > 100 µM
MDA-MB-435
  TGI: 47.4 µM
SK-MEL-2 melanoma
  TGI: 35.6 µM
HCC-2998 colon
  TGI: 38.5 µM

## CC1(C)[C@H](C(=O)O)N2C(=O)[C@@H](NS(=O)(=O)c3ccc([N+](=O)[O-])cc3)[C@H]2S1(=O)=O
M14 melanoma
  TGI: > 100 µM
COLO 205 colon
  TGI: > 100 µM
OVCAR-4 ovarian
  TGI: > 100 µM
U251 CNS
  TGI: > 100 µM
EKVX NSCLC
  TGI: > 100 µM
SW-620 colon
  TGI: > 100 µM
MDA-MB-435
  TGI: > 100 µM
SK-MEL-2 melanoma
  TGI: > 100 µM
HCC-2998 colon
  TGI: > 100 µM

## CCc1ccc(N=Cc2cc(OC)c(OC)c(OC)c2)cc1
M14 melanoma
  TGI: > 100 µM
COLO 205 colon
  TGI: > 100 µM
OVCAR-4 ovarian
  TGI: > 100 µM
U251 CNS
  TGI: > 100 µM
EKVX NSCLC
  TGI: > 100 µM
SW-620 colon
  TGI: 28.7 µM
SK-MEL-2 melanoma
  TGI: > 100 µM

## CC(=N\N)/C(C)=N/N=C(C)/C(C)=N/N=C(C)/C(C)=N/N=C(C)/C(C)=N/N
M14 melanoma
  TGI: > 100 µM
COLO 205 colon
  TGI: > 100 µM
OVCAR-4 ovarian
  TGI: > 100 µM
U251 CNS
  TGI: > 100 µM
EKVX NSCLC
  TGI: > 100 µM
SW-620 colon
  TGI: > 100 µM
MDA-MB-435
  TGI: > 100 µM
SK-MEL-2 melanoma
  TGI: > 100 µM
HCC-2998 colon
  TGI: > 100 µM

## COc1cc2c[n+](C)c3c4cc(OC)c(OC)cc4c(OC)cc3c2cc1OC
M14 melanoma
  TGI: > 100 µM
COLO 205 colon
  TGI: 4.41 µM
OVCAR-4 ovarian
  TGI: > 69.5 µM
U251 CNS
  TGI: > 51.8 µM
EKVX NSCLC
  TGI: > 100 µM
SW-620 colon
  TGI: > 100 µM
MDA-MB-435
  TGI: > 60.4 µM
SK-MEL-2 melanoma
  TGI: > 86 µM
HCC-2998 colon
  TGI: > 52.1 µM

## CC(C)(C)OC(=O)NCCCCC(N)C(N)=O (configuration not stated)
M14 melanoma
  TGI: > 100 µM
COLO 205 colon
  TGI: > 100 µM
OVCAR-4 ovarian
  TGI: > 100 µM
U251 CNS
  TGI: > 100 µM
EKVX NSCLC
  TGI: > 100 µM
SW-620 colon
  TGI: > 100 µM
MDA-MB-435
  TGI: > 100 µM
SK-MEL-2 melanoma
  TGI: > 100 µM
HCC-2998 colon
  TGI: > 100 µM

## CC(=O)OC1C(C)OC(Oc2c(C)c3c4c(c2O)[C@@H](C)CC[C@@H]4[C@@H](C)C[C@H]3C=C(C)C)C(O)C1O (some centres not stated)
COLO 205 colon
  GI50: 3.98 µM
  TGI: > 100 µM
OVCAR-4 ovarian
  GI50: 3.2 µM
  TGI: > 100 µM
MDA-MB-435
  GI50: 2.13 µM
  TGI: 4.49 µM
SK-MEL-2 melanoma
  GI50: > 100 µM
  TGI: > 100 µM

## COc1ccc2nc3cc(Cl)ccc3c(NCCCN(Cc3cc(OC)c(OC)c(OC)c3)Cc3cc(OC)c(OC)c(OC)c3)c2c1
M14 melanoma
  TGI: 3.45 µM
COLO 205 colon
  TGI: 23.5 µM
U251 CNS
  TGI: 17.3 µM
EKVX NSCLC
  TGI: 37.4 µM
SW-620 colon
  TGI: 3.22 µM
SK-MEL-2 melanoma
  TGI: 72.1 µM
HCC-2998 colon
  TGI: 37.3 µM

## OCC1OC(n2nc(-c3ccccc3)nc2-c2cnccn2)C(O)C(O)C1O (configuration not stated)
M14 melanoma
  TGI: > 100 µM
COLO 205 colon
  TGI: > 100 µM
OVCAR-4 ovarian
  TGI: > 100 µM
U251 CNS
  TGI: > 100 µM
SW-620 colon
  TGI: > 100 µM
MDA-MB-435
  TGI: > 100 µM
HCC-2998 colon
  TGI: > 100 µM

## NC(Cc1ccc(S(=O)(=O)O)cc1)C(=O)NC(CCCCNC(=O)NCCCCC(NC(=O)C(N)Cc1ccc(S(=O)(=O)O)cc1)C(=O)NC(Cc1ccc(S(=O)(=O)O)cc1)C(=O)O)C(=O)NC(Cc1ccc(S(=O)(=O)O)cc1)C(=O)O (configuration not stated)
M14 melanoma
  TGI: > 100 µM
COLO 205 colon
  TGI: > 100 µM
OVCAR-4 ovarian
  TGI: > 100 µM
U251 CNS
  TGI: > 100 µM
EKVX NSCLC
  TGI: > 100 µM
SW-620 colon
  TGI: > 100 µM
MDA-MB-435
  TGI: > 100 µM
SK-MEL-2 melanoma
  TGI: > 100 µM
HCC-2998 colon
  TGI: > 100 µM

## CC(=O)OC1=c2ccccc2=C(O)C2C1C=NN2C(C)=O (configuration not stated)
M14 melanoma
  TGI: > 100 µM
COLO 205 colon
  TGI: > 100 µM
OVCAR-4 ovarian
  TGI: > 100 µM
U251 CNS
  TGI: > 100 µM
EKVX NSCLC
  TGI: > 100 µM
SW-620 colon
  TGI: > 100 µM
MDA-MB-435
  TGI: > 100 µM
SK-MEL-2 melanoma
  TGI: > 100 µM
HCC-2998 colon
  TGI: > 100 µM

## Oc1ccc(-c2csc(NNC3=NC/C(=C/c4ccc5c(c4)OCO5)S3)n2)cc1O
M14 melanoma
  TGI: > 100 µM
COLO 205 colon
  TGI: > 100 µM
OVCAR-4 ovarian
  TGI: > 100 µM
U251 CNS
  TGI: > 100 µM
EKVX NSCLC
  TGI: > 100 µM
SW-620 colon
  TGI: > 100 µM
MDA-MB-435
  TGI: > 100 µM
SK-MEL-2 melanoma
  TGI: > 100 µM
HCC-2998 colon
  TGI: > 100 µM

## CC1(C)CC(=O)C(CCC(=O)/C=C/c2ccccc2)C(=O)C1
M14 melanoma
  TGI: > 100 µM
COLO 205 colon
  TGI: > 100 µM
OVCAR-4 ovarian
  TGI: > 100 µM
U251 CNS
  TGI: > 100 µM
EKVX NSCLC
  TGI: > 100 µM
SW-620 colon
  TGI: > 100 µM
MDA-MB-435
  TGI: > 100 µM
SK-MEL-2 melanoma
  TGI: > 100 µM
HCC-2998 colon
  TGI: > 100 µM

## COc1ccc(/C=C2\CCC(C)C3=C(c4ccc(OC)c(OC)c4)C(C#N)=C(N)OC32)cc1OC (configuration not stated)
M14 melanoma
  TGI: 15 µM
COLO 205 colon
  TGI: 7.74 µM
U251 CNS
  TGI: > 100 µM
EKVX NSCLC
  TGI: 8.12 µM
SW-620 colon
  TGI: > 100 µM
MDA-MB-435
  TGI: 10.1 µM
SK-MEL-2 melanoma
  TGI: 5.63 µM

## CCOC(=O)c1cnn2c1ncc1c(=O)n(NC(N)=O)ccc12
M14 melanoma
  TGI: > 100 µM
COLO 205 colon
  TGI: > 100 µM
OVCAR-4 ovarian
  TGI: > 100 µM
U251 CNS
  TGI: > 100 µM
EKVX NSCLC
  TGI: > 100 µM
SW-620 colon
  TGI: > 100 µM
MDA-MB-435
  TGI: > 100 µM
SK-MEL-2 melanoma
  TGI: > 100 µM

## COC1=C2CC(C)CC(OC)C(O)C(C)/C=C(\C)C(OC(N)=O)C(OC)/C=C\C=C(/C)C(=O)NC(=C(C=NC(C)(C)C)C1=O)C2=O (configuration not stated)
COLO 205 colon
  TGI: 10.6 µM
OVCAR-4 ovarian
  TGI: 14.4 µM
U251 CNS
  TGI: 21.9 µM
EKVX NSCLC
  TGI: 26 µM
SW-620 colon
  TGI: 20.9 µM
SK-MEL-2 melanoma
  TGI: 12.3 µM
HCC-2998 colon
  TGI: 16.6 µM

## CCS(=O)(=O)N1CCC(C(C)n2c(C)c(C(=O)NCc3c(OC)cc(C)[nH]c3=O)c3ccccc32)CC1 (configuration not stated)
COLO 205 colon
  GI50: > 100 µM
  TGI: > 100 µM
OVCAR-4 ovarian
  GI50: > 100 µM
  TGI: > 100 µM
U251 CNS
  GI50: > 100 µM
  TGI: > 100 µM
EKVX NSCLC
  GI50: > 100 µM
  TGI: > 100 µM
SW-620 colon
  GI50: > 100 µM
  TGI: > 100 µM
MDA-MB-435
  GI50: > 100 µM
  TGI: > 100 µM
SK-MEL-2 melanoma
  GI50: > 100 µM
  TGI: > 100 µM
HCC-2998 colon
  GI50: > 100 µM
  TGI: > 100 µM
